# In patent US20130029955A1, “INHIBITORS OF GALECTIN-3 AND METHODS OF USE THEREOF” (priority 2011, published 2013):
# Test system: TGR(mREN2)27 rats
# Test: Rat model of heart failure treated with a galectin-3 inhibitor
# Format: in vivo
# Description: In this study, N-acetyllactosamine (Gal3i) or an angiotensin-converting enzyme inhibitor (ACEi) was administered to TGR(mREN2)27 rats. Untreated TGR(mREN2)27 (REN2) and Sprague-Dawley (SD) rats were used as controls. TGR(mREN2)27 rats overexpress Ren-2, which leads to development of severe hypertension and ultimately heart failure. Fractional shortening, left ventricular end diastolic pressure (LVEDP), fibrosis, and survival were evaluated as a function of time.
smiles,measurement,setting,value
"CC(=O)N[C@H]1C(O)O[C@H](CO)[C@@H](O[C@@H]2O[C@H](CO)[C@H](O)[C@H](O)[C@H]2O)[C@@H]1O (some centres unmarked) [Gal3i, N-acetyllactosamine]",fractional shortening,"FIG. 3A, TGR(mREN2)27 rats, relative to placebo-treated REN2 control",prevented a significant loss
same,rate of decrease in fractional shortening compared with SD control group,"FIG. 3B, SD control group did not develop heart failure",comparable to that of the SD control group
same,reduction in fractional shortening from beginning of the study to sacrifice,"FIG. 3B, relative to placebo-treated REN2 control",significantly slowed the reduction in fractional shortening
same,left ventricular end diastolic pressure (LVEDP),"FIG. 3C, relative to placebo-treated REN2 control",significantly improved the LVEDP
same,Tau compared with SD control group,FIG. 3D,comparable to that of the SD control group
same,left ventricle pressure decay (Tau),"FIG. 3D, relative to placebo-treated REN2 control",significantly improved the Tau
same,cardiac fibrosis,"FIG. 4A/4B, cardiac tissue sections, compared to placebo-treated REN2 control group",significantly inhibited fibrosis
same,"survival (rats remaining, Kaplan-Meier)","FIG. 5, after 40 days, placebo-treated REN2 rats about 65%",approximately 80%
